Measurements from paper PMC2648976 (Biochemistry, 2008).
“Also recorded” adds a separate entry of the source. Where a SMILES comes first, the peptide text is derived from it. The star is where a group is joined. AMC = Cc1cc(=O)oc2cc(N*)ccc12

What was measured:
WNV NS2B-NS3 protease [1] = molecular target: T1, WNV NS2B-NS3 protease (West Nile virus, UniProt Q9Q6P4); assay: NS2B-NS3pro kinetic assay, cleavage of fluorophore-linked; type: biochemical; conditions: for substrate inhibition (reaction mechanism): high substrate concentrations
T1 sequence (Q9Q6P4 1428-1467 limits assumed, looked up): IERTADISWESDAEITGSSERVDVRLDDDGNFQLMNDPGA
T1 sequence (Q9Q6P4 1506-1683 limits assumed, looked up): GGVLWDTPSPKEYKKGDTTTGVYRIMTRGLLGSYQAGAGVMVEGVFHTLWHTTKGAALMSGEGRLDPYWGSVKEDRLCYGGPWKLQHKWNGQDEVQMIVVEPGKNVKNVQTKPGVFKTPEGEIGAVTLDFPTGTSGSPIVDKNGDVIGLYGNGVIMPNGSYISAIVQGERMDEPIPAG

WNV NS2B-NS3 protease [2] = molecular target: T1, WNV NS2B-NS3 protease; assay: Inhibition of NS2B-NS3pro by product-analog peptides; type: biochemical; conditions: for Kd (substrate) compared with Ki1 (inhibitor) / difference between Kd2 (substrate) and Ki2 (inhibitor): mixed inhibitor-substrate inhibition model
[3] = 200 mM Tris pH 9.0, 20% glycerol

## Cc1cc(=O)oc2cc(NC(=O)[C@H](CCCNC(=N)N)NC(=O)[C@H](CCCNC(=N)N)NC(=O)CNC(=O)OC(C)(C)C)ccc12 [Boc-GRR-AMC, Boc-Gly-Arg-Arg-AMC]
WNV NS2B-NS3 protease [1]; [3]
  NS2B-NS3pro activity against substrate: clearly active
  substrate inhibition (reaction mechanism): initial reaction velocities reached a peak and then decreased with increasing substrate concentration; also recorded: substrate inhibition model
WNV NS2B-NS3 protease [1]; Boc-GRR-AMC relative to Ac-DFASGKR-AMC
  relative binding (Kd): tighter binding (lower Kd)
WNV NS2B-NS3 protease [1]; at high substrate concentrations
  relative extent of substrate inhibition: more pronounced with Boc-GRR-AMC than with Boc-GKR-AMC (data not shown) or Ac-DFASGKR-AMC
WNV NS2B-NS3 protease [1]; 200 mM Tris pH 9.0, 20% glycerol, listed as Boc-Gly-Arg-Arg-AMC
  substrate inhibition (reaction mechanism): demonstrated substrate inhibition

## Ac-DFASGKR
WNV NS2B-NS3 protease [2]
  Kd (substrate) compared with Ki1 (inhibitor): very similar
  difference between Kd2 (substrate) and Ki2 (inhibitor): ~ 2 -fold
WNV NS2B-NS3 protease [2]; model discrimination analysis with Dynafit
  mechanism of inhibition: mixed inhibitor-substrate inhibition model; also recorded: mixed non-competitive mechanism (with both competitive and uncompetitive interactions)

## CC(=O)N[C@@H](CC(=O)O)C(=O)N[C@@H](Cc1ccccc1)C(=O)N[C@@H](C)C(=O)N[C@@H](CO)C(=O)NCC(=O)N[C@@H](CCCCN)C(=O)N[C@@H](CCCNC(=N)N)C(=O)Nc1ccc2c(C)cc(=O)oc2c1 [Ac-DFASGKR-AMC, Ac-Asp-Phe-Ala-Ser-Gly-Lys-Arg-AMC] (Ac-DFASGKR-{AMC})
WNV NS2B-NS3 protease [1]; [3]
  substrate inhibition (reaction mechanism): substrate inhibition was also observed with the longer substrate (Figure 2b), though it was observed at higher substrate concentrations compared to the tripeptide substrates; also recorded: substrate inhibition model
WNV NS2B-NS3 protease [1]; 200 mM Tris pH 9.0, 20% glycerol, listed as Ac-Asp-Phe-Ala-Ser-Gly-Lys-Arg-AMC
  substrate inhibition (reaction mechanism): demonstrated substrate inhibition

## CC(=O)NCC(=O)N[C@@H](CCCNC(=N)N)C(=O)N[C@@H](CCCNC(=N)N)C(N)=O [Ac-GRR-NH2]
WNV NS2B-NS3 protease [2]
  Kd (substrate) compared with Ki1 (inhibitor): similar
  difference between Kd2 (substrate) and Ki2 (inhibitor): ~ 2 -fold
WNV NS2B-NS3 protease [2]; model with and without this interaction similar
  Ki3 (interaction with substrate-inhibited enzyme-substrate complex): large Ki3 which did not play a substantial role in the overall inhibition
